The source of these data is ChEMBL document CHEMBL3751689, “Synthesis and biological properties of prodrugs of (S)-3-(adenin-9-yl)-2-(phosphonomethoxy)propanoic acid” (Eur J Med Chem, 2016).

Structures are written as SMILES. Calls of active or inactive are those of the source. The calls are words filed in the database; no cut-off is given here.

In one series the test system is Bordetella pertussis. The series is described as follows: Inhibition of Bordetella pertussis CyaA in mouse J774A.1 cells assessed as cAMP formation at 10 uM by immunoassay relative to control. The format is cell-based. The conditions noted are these: values are per cent of control. On the technique in general: Changes in cAMP serve as a functional read-out for many G protein-coupled receptors.

Series [1] relates to Hepatitis C virus. Briefly: Antiviral activity against HCV genotype 1a replicon infected in human HuH7 cells after 3 days by renilla luciferase assay. The format is functional, organism-based. The conditions noted are these: subtype 1a; for Activity: Hepacivirus hominis, Huh-7; for EC50: Huh-7, 72 h. Background: Replicon systems follow genome replication, usually without infectious particles.

In series [2] the test system is Hepatitis C virus. The series is described as follows: Antiviral activity against HCV genotype 1b replicon infected in HuH7 cells after 3 days by renilla luciferase assay. The conditions noted are these: for Activity: Hepacivirus hominis, Huh-7; for EC50: Huh-7, 72 h. The format is functional, organism-based.
Series [3] has as its system Hepatitis C virus. The series is described as follows: Antiviral activity against HCV genotype 2a replicon infected in HuH7 cells after 3 days by renilla luciferase assay. The conditions noted are these: for Activity: Hepacivirus hominis, Huh-7; for EC50: Huh-7, 72 h. The format is functional, organism-based.
Series [4] deals with Human immunodeficiency virus 1. Briefly: Antiviral activity against HIV1 infected in MT4 cells. The format is functional, organism-based. The conditions noted are these: Human immunodeficiency virus 1, MT4.
Series [5] is described as follows: Cytotoxicity against human MT4 cells. The format is cell-based.
For a further series, the system named is Human rhinovirus 1A. The series is described as follows: Antiviral activity against HRV1A infected in HeLa cells. The format is functional, organism-based.
Series [6] can be described thus: Cytotoxicity against human HeLa cells. The format is cell-based.
A short description of series [7]: Cytotoxicity against human HuH7 infected with HCV genotype 1a cells after 3 days by calcein-AM dye based fluorescence analysis. The format is cell-based, Huh-7. The conditions noted are these: HuH7 cells infected with HCV genotype 1a.
Series [8] is described as follows: Cytotoxicity against human HuH7 infected with HCV genotype 1b cells after 3 days by calcein-AM dye based fluorescence analysis. The format is cell-based, Huh-7. The conditions noted are these: HuH7 cells infected with HCV genotype 1b.
A short description of series [9]: Cytotoxicity against human HuH7 infected with HCV genotype 2a cells after 3 days by calcein-AM dye based fluorescence analysis. The conditions noted are these: HuH7 cells infected with HCV genotype 2a. The format is cell-based, Huh-7.
A short description of series [10]: Selectivity index, ratio of CC50 for human HuH7 cells to EC50 for HCV genotype 1a. Also noted: species or system Huh-7.
A short description of series [11]: Selectivity index, ratio of CC50 for human HuH7 cells to EC50 for HCV genotype 1b. Also noted: species or system Huh-7.
Series [12] in a line: Selectivity index, ratio of CC50 for human HuH7 cells to EC50 for HCV genotype 2a. Also noted: species or system Huh-7.

For the molecule `NC(=O)[C@H](Cn1cnc2c(N)ncnc21)OCP(=O)(O)O`, the residual activity with Bordetella pertussis was 66%. For the same molecule, the result in the series with Hepatitis C virus [1], in the series on Hepatitis C virus [2] and with Hepatitis C virus [3] was inactive.

In the case of `Nc1ncnc2c1ncn2C[C@H](OCP(=O)(O)O)C(=O)NC1CC1`, in the series on Bordetella pertussis, the residual activity was 135%. Further, the outcome with Hepatitis C virus [1], in the series with Hepatitis C virus [2] and in the series with Hepatitis C virus [3] was inactive.

For the molecule `CCCCCCCCCCCCCCCCOCCCOP(=O)(O)CO[C@@H](Cn1cnc2c(N)ncnc21)C(=O)OC`, the residual activity in the series with Bordetella pertussis stood at 140%. For the same molecule, the EC50 is more than 53.2 µM in series [4]; more than 50 µM in the series with Human rhinovirus 1A; 20.6 µM in the series on Hepatitis C virus [1]; 30.9 µM with Hepatitis C virus [2]; 9.6 µM in the series with Hepatitis C virus [3]. Besides, the CC50 in series [5] is 3.7 µM; in series [6], more than 50 µM. Also, the CC50 at 72 h in [7], in series [8] and in series [9] was more than 44.4 µM each time.

For `CCOC(=O)[C@H](C)NP(=O)(CO[C@@H](Cn1cnc2c(N)ncnc21)C(=O)OC)N[C@@H](C)C(=O)OCC`, the residual activity with Bordetella pertussis was determined as 139%. For the same molecule, the EC50 in [4] was more than 53.2 µM; in the series on Human rhinovirus 1A it was more than 50 µM; in the series with Hepatitis C virus [1], more than 44.4 µM; with Hepatitis C virus [2], more than 44.4 µM; in the series on Hepatitis C virus [3], 39.2 µM. Further, the CC50 was 40.5 µM in [5] and more than 50 µM in series [6]. For the same molecule, the CC50 at 72 h in series [7], in series [8] and in [9] was more than 44.4 µM throughout.

For `CCOC(=O)[C@H](Cc1ccccc1)NP(=O)(CO[C@@H](Cn1cnc2c(N)ncnc21)C(=O)OC)N[C@@H](Cc1ccccc1)C(=O)OCC`, the residual activity with Bordetella pertussis amounted to 112%. Moreover, the “Ratio CC50/EC50” value in [10], in [11] and in series [12] was 30 in each case. The EC50 is more than 53.2 µM in series [4]; more than 50 µM in the series with Human rhinovirus 1A; 0.6 µM in the series with Hepatitis C virus [1]; 1.1 µM with Hepatitis C virus [2]; 0.6 µM with Hepatitis C virus [3]. Besides, the CC50 in series [5] is 0.7 µM; in series [6], more than 50 µM. For the same molecule, the CC50 at 72 h is 18.3 µM in series [7], 30.4 µM in series [8] and 12.6 µM in series [9].

As for `CCOC(=O)[C@H](C)NC(=O)[C@H](Cn1cnc2c(N)ncnc21)OCP(=O)(N[C@@H](C)C(=O)OCC)N[C@@H](C)C(=O)OCC`, the EC50 is more than 53.2 µM in series [4]; more than 50 µM in the series with Human rhinovirus 1A; more than 44.4 µM in the series with Hepatitis C virus [1]; more than 44.4 µM with Hepatitis C virus [2]; more than 44.4 µM with Hepatitis C virus [3]. The CC50 in series [5] is more than 53.2 µM; in [6] it was more than 50 µM. Also, the CC50 at 72 h in [7], in [8] and in [9] was more than 44.4 µM throughout.

On to `Nc1ncnc2c1ncn2C[C@H](OCP(=O)(O)O)C(=O)O`, for which the EC50 in [4] is more than 53.2 µM; in the series with Human rhinovirus 1A, more than 50 µM; in the series on Hepatitis C virus [1], more than 44.4 µM; with Hepatitis C virus [2], more than 44.4 µM; in the series with Hepatitis C virus [3], more than 44.4 µM. The CC50 in series [5] was more than 53.2 µM; in series [6], more than 50 µM. Further, the CC50 at 72 h in series [7], in series [8] and in series [9] was more than 44.4 µM in each case.

On to `COC(=O)[C@H](Cn1cnc2c(N)ncnc21)OCP(=O)(O)O`, for which the residual activity with Bordetella pertussis turned out to be 90%. Also, the result with Hepatitis C virus [1], with Hepatitis C virus [2] and in the series with Hepatitis C virus [3] was inactive.

Regarding `CCOC(=O)[C@H](Cc1ccccc1)NP(=O)(CO[C@@H](Cn1cnc2c(N)ncnc21)C(=O)OC)Oc1ccccc1` (some centres not stated), the residual activity with Bordetella pertussis amounted to 68%. The “Ratio CC50/EC50” value in series [10], in [11] and in series [12] was 30 each time. In addition, the EC50 in series [4] is more than 53.2 µM; with Human rhinovirus 1A, more than 50 µM; with Hepatitis C virus [1] it was 0.8 µM; in the series on Hepatitis C virus [2], 1.5 µM; in the series on Hepatitis C virus [3], 0.6 µM. Moreover, the results for the CC50 in [5] and in series [6] were 1.4 µM and more than 50 µM, respectively. For the same molecule, the cytotoxic concentration (CC50) at 72 h in [7] is 42.6 µM; in series [8] it was more than 44.4 µM; in [9], 25.3 µM.

The residual activity is the signal under treatment as a percentage of the control signal. What is called EC50 is the concentration giving half of the maximal effect. A low value points to a more potent agent. By CC50 is commonly meant the concentration giving 50% cytotoxicity.
